Measurements from patent EP4793281A1, “ORGAN FIBROSIS-RELATED MICROPEPTIDE (OFMP) AND USE THEREOF” (Nanjing Anji Biological Technology Co., Ltd., priority 2023, dated 2025).

Tests used:
Format in all cases: cell-based
[1] = test system: human hepatic stellate cells LX-2; assay: inhibitory effect in human liver fibrosis cell model (TGFβ1-stimulated), qPCR of fibrosis gene mRNA; details: for difference from the positive drug hydronidone group: liver fibrosis cells, hydronidone 20µmol; for therapeutic effect on liver fibrosis: overall conclusion from the LX-2 cell model
Description: (§1) In embodiments, the method for detecting the inhibitory effect of micropeptide OFMP in a fibrotic cell model by the real-time fluorescence quantitative PCR method comprises: • counting and inoculating human hepatic stellate cells LX-2, human non-small cell lung cancer cell line A549, and human renal proximal tubular cells HK2 to culture plates; • except for the control group, adding 10nmol of recombinant human TGFβ1 stimulating factor to stimulate continuously for 24 h; • extracting and collecting the total RNA of the cell samples with a TRIzol reagent, and then reverse-transcribing the extracted total RNA using a reverse transcription reagent, and performing qPCR reaction using the qPCR premix solution; and • detecting mRNA expression levels of genes Colla1 and α-SMA using a real-time fluorescence quantitative PCR instrument.
(§2) According to the TRIzol reagent manual of Life Invitrogen, the total RNA of the cell samples was extracted and collected. Then, the purity and concentration of the extracted RNA was quantified by a NanoDrop 2000 ultra micro spectrophotometer. The integrity of the extracted RNA was inspected and ensured by agarose gel electrophoresis. A reverse transcription reagent HiScript® III RT SuperMix for qPCR (+ genomic DNA wiper) was used to perform reverse transcription on the extracted total RNA and a qPCR premix liquid ChamQ SYBR qPCR Master Mix was used to perform qPCR reaction.
(§3) After the above components were mixed well, the following procedure proceeded: initial denaturation 95°C 30s, 95°C 10s, 60°C 30s, 50 cycles. After the qPCR reaction was completed, the Cq value of each sample well was collected. The maximum error of the Cq values among the three duplicate wells of each sample should be no more than 0.5 to ensure data accuracy.
(§4) Human hepatic stellate cells LX-2, human non-small cell lung cancer cell line A549, and human renal proximal tubular cells HK2 were cultured in a 37°C 5% CO2 cell incubator until the cell density was above 80%, and the cells were digested and collected by trypsin, and centrifuged. After the supernatant was discarded, the cells were counted by a cell counter, inoculated to six-well cell culture plates, and put into a 37°C 5% CO2 cell incubator to continue the culturing. The culture medium was sucked out after the cells were cultured for 24 h, a 2‰ DMSO solvent was added as a negative control, 20µmol of hydronidone was added as a positive control, 40µmol, 10µmol, 2.5µmol, 625nmol and 156nmol of the synthetic peptide OFMP were added in the equal proportion for other groups as administration groups, 10nmol of recombinant human TGFβ1 stimulating factor was added to other groups except the control groups half an hour later to continuously stimulate for 24 h, and the mRNA expression levels of genes Colla1, TGFβ1 and CTGF in OFMP3178, and the mRNA expression levels of genes Colla1 and α-SMA in OFMP2067 and OFMP1080 were detected.

[2] = test system: Human renal proximal tubular cells HK2; assay: inhibitory effect in human renal fibrosis cell model (TGFβ1-stimulated), qPCR of fibrosis gene mRNA; details: for therapeutic effect on renal fibrosis: overall conclusion from the HK2 cell model; for difference from the positive drug hydronidone group: renal fibrosis cells, hydronidone 20µmol
Description: as §1, §2, §3
as §4, with “Human” for “Human hepatic stellate cells LX-2, human non-small cell lung cancer cell line A549, and human”

[3] = test system: Human non-small cell lung cancer cell line A549; assay: inhibitory effect in human pulmonary fibrosis cell model (TGFβ1-stimulated), qPCR of fibrosis gene mRNA; details: for therapeutic effect on pulmonary fibrosis: overall conclusion from the A549 cell model; for difference from the positive drug Nintedanib group: pulmonary fibrosis cells, Nintedanib 2µmol
Description: as §1, §2, §3
as §4, with “Human” for “Human hepatic stellate cells LX-2, human”, “A549 was” for “A549, and human renal proximal tubular cells HK2 were”, “2µmol” for “20µmol”, “Nintedanib” for “hydronidone”

[4] = different concentrations (40µmol to 156nmol), 10nmol TGFβ1, 24 h, compared with the model group

OFMP1080 (MRHRLVSLSVTSCVTPAAGTRRGSAGAVGTNTGRGGPPPHALRASGEQSPAQGVS)
mRNA expression level of gene Colla1 in liver fibrosis cells [1, 4]: significantly decreased
difference from the positive drug hydronidone group [1]: not a significant difference
therapeutic effect on liver fibrosis [1]: good therapeutic effect
mRNA expression level of gene Colla1 in liver fibrosis cells ([1]; treatment condition 40µmol-24h): most significant decrease
mRNA expression level of gene α-SMA in liver fibrosis cells ([1]; treatment condition 40µmol-24h): most significant decrease
mRNA expression level of gene Colla1 in renal fibrosis cells [2, 4]: significantly decreased
therapeutic effect on renal fibrosis [2]: good therapeutic effect
mRNA expression level of gene Colla1 in renal fibrosis cells ([2]; treatment condition 40µmol-24h): most significant decrease
mRNA expression level of gene Colla1 in pulmonary fibrosis cells [3, 4]: significantly decreased
therapeutic effect on pulmonary fibrosis [3]: good therapeutic effect
mRNA expression level of gene Colla1 in pulmonary fibrosis cells ([3]; treatment condition 10µmol-24h): most significant decrease

OFMP2067 (MHLDHSDPITRDHMGSVMAQVRQKLFQFLQAEPHNSLGKAARRLSLMLHGLVTPSLP)
mRNA expression level of gene Colla1 in liver fibrosis cells [1, 4]: significantly decreased
mRNA expression level of gene α-SMA in liver fibrosis cells [1, 4]: significantly decreased
difference from the positive drug hydronidone group [1]: a significant difference
therapeutic effect on liver fibrosis [1]: good therapeutic effect
mRNA expression level of gene Colla1 in liver fibrosis cells ([1]; treatment condition 40µmol-24h): most significant decrease
mRNA expression level of gene α-SMA in liver fibrosis cells ([1]; treatment condition 40µmol-24h): most significant decrease
mRNA expression level of gene Colla1 in renal fibrosis cells [2, 4]: significantly decreased
mRNA expression level of gene α-SMA in renal fibrosis cells [2, 4]: significantly decreased
therapeutic effect on renal fibrosis [2]: good therapeutic effect
difference from the positive drug hydronidone group [2]: a significant difference
mRNA expression level of gene Colla1 in renal fibrosis cells ([2]; treatment condition 40µmol-24h): most significant decrease
mRNA expression level of gene α-SMA in renal fibrosis cells ([2]; treatment condition 40µmol-24h): most significant decrease
mRNA expression level of gene Colla1 in pulmonary fibrosis cells [3, 4]: significantly decreased
mRNA expression level of gene α-SMA in pulmonary fibrosis cells [3, 4]: significantly decreased
therapeutic effect on pulmonary fibrosis [3]: good therapeutic effect
difference from the positive drug Nintedanib group [3]: a significant difference
mRNA expression level of gene Colla1 in pulmonary fibrosis cells ([3]; treatment condition 40µmol-24h): most significant decrease
mRNA expression level of gene α-SMA in pulmonary fibrosis cells ([3]; treatment condition 40µmol-24h): most significant decrease

OFMP3178 (MSLSICTLCLLPRRQEYCILKVPGLLFFLITNDLGSSDHSCLPRVKVPFKALLPGEL)
mRNA expression level of gene CTGF in liver fibrosis cells [1, 4]: significantly decreased
mRNA expression level of gene Colla1 in liver fibrosis cells [1, 4]: significantly decreased
difference from the positive drug hydronidone group [1]: a significant difference
therapeutic effect on liver fibrosis [1]: good therapeutic effect
mRNA expression level of gene CTGF in liver fibrosis cells ([1]; treatment condition 40µmol-24h): most significant decrease
mRNA expression level of gene Colla1 in liver fibrosis cells ([1]; treatment condition 40µmol-24h): most significant decrease
mRNA expression level of gene CTGF in renal fibrosis cells [2, 4]: significantly decreased
mRNA expression level of gene Colla1 in renal fibrosis cells [2, 4]: significantly decreased
mRNA expression level of gene TGFβ1 in renal fibrosis cells [2, 4]: significantly decreased
therapeutic effect on renal fibrosis [2]: good therapeutic effect
difference from the positive drug hydronidone group [2]: a significant difference
mRNA expression level of gene CTGF in renal fibrosis cells ([2]; treatment condition 40µmol-24h): most significant decrease
mRNA expression level of gene Colla1 in renal fibrosis cells ([2]; treatment condition 40µmol-24h): most significant decrease
mRNA expression level of gene TGFβ1 in renal fibrosis cells ([2]; treatment condition 40µmol-24h): most significant decrease
mRNA expression level of gene CTGF in pulmonary fibrosis cells [3, 4]: significantly decreased
mRNA expression level of gene Colla1 in pulmonary fibrosis cells [3, 4]: significantly decreased
mRNA expression level of gene TGFβ1 in pulmonary fibrosis cells [3, 4]: significantly decreased
therapeutic effect on pulmonary fibrosis [3]: good therapeutic effect
difference from the positive drug Nintedanib group [3]: a significant difference
mRNA expression level of gene CTGF in pulmonary fibrosis cells ([3]; treatment condition 40µmol-24h): most significant decrease
mRNA expression level of gene Colla1 in pulmonary fibrosis cells ([3]; treatment condition 40µmol-24h): most significant decrease
mRNA expression level of gene TGFβ1 in pulmonary fibrosis cells ([3]; treatment condition 40µmol-24h): most significant decrease
